Columns and labels:
[1] = tested on: S. aureus Newman; assay: Bliss interaction score (quartile over a dose matrix) (fitness difference); higher = more antagonism (negative = synergy)
How it was run: (§1)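 The Bliss score is observed minus expected fitness under the product model, reported as quartiles over technical, biological and donor/recipient replicates. Fitness is the OD595 at entry into stationary phase divided by the plate's robust no-drug mean and capped at 1. Single-drug fitness was inferred from combination data.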

[2] = tested on: B. subtilis 168; assay: as above
How it was run: as §1

[3] = tested on: S. aureus DSM 20231; assay: as above
How it was run: as §1

[4] = tested on: S. pneumoniae D39V; assay: as above
How it was run: as §1

[5] = tested on: S. aureus Newman; assay: fitness (endpoint OD595 vs no drug) (fraction); higher = more growth
How it was run: (§2)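 Fitness is computed from the optical density at which cultures reach stationary phase, divided by the robust mean of no-drug control wells. Any value above 1 is set to 1. Cultures started at OD595 0.01 in 384-well plates with TSB, LB Lennox or CY at 37 °C, and OD595 was read every 30 min for 14 h against a first-reading background.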

[6] = tested on: B. subtilis 168; assay: as above
How it was run: as §2

[7] = tested on: S. pneumoniae D39V; assay: as above
How it was run: as §2
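Throughout, for Bliss interaction score (quartile over a dose matrix): first quartile when negative (synergy) and third quartile when positive (antagonism).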

O=C(O)c1cn(C2CC2)c2cc(N3CCNCC3)c(F)cc2c1=O [Ciprofloxacin] + Cc1cc(NS(=O)(=O)c2ccc(N)cc2)no1 [Sulfamethoxazol]
Conditions | Bliss interaction score
[1] | -0.0651
[2] | -0.0827
[3] | -0.0468
[4] | 0.0466

fitness
Conditions | partner 1 µg/mL | partner 2 µg/mL | partner 4 µg/mL
[5], first compound 0.0375 µg/mL | 0.732 | 0.715 | 0.722
[5], first compound 0.075 µg/mL | 0.623 | – | 0.643
[5], first compound 0.15 µg/mL | 0.124 | 0.0895 | 0.0354
[6], first compound 0.0098 µg/mL | 0.89 | 0.858 | 0.913
[6], first compound 0.0195 µg/mL | 0.734 | 0.702 | 0.671
[6], first compound 0.039 µg/mL | 0.0972 | 0.132 | 0.0479
[7], first compound 0.125 µg/mL | 0.93 | 0.952 | 0.96
[7], first compound 0.25 µg/mL | 0.846 | 0.863 | 0.821

fitness, one replicate
Conditions | first compound 0.0098 µg/mL | first compound 0.0195 µg/mL | first compound 0.039 µg/mL | first compound 0.078 µg/mL | first compound 0.156 µg/mL | first compound 0.312 µg/mL
[5], partner 2 µg/mL | – | – | – | 0.76 | 0.495 | 0.0936
[5], partner 4 µg/mL | – | – | – | 0.764 | 0.475 | 0.0929
[5], partner 8 µg/mL | – | – | – | 0.708 | 0.353 | 0.0905
[6], partner 0.5 µg/mL | 0.967 | 0.88 | 0.376 | – | – | –

O=C(O)c1cn(C2CC2)c2cc(N3CCNCC3)c(F)cc2c1=O [Ciprofloxacin] + CN[C@@H]1[C@H](O[C@H]2[C@H](O[C@H]3[C@H](O)[C@@H](O)[C@H](N=C(N)N)[C@@H](O)[C@@H]3N=C(N)N)O[C@@H](C)[C@]2(O)C=O)O[C@@H](CO)[C@H](O)[C@H]1O [Streptomycin]
Conditions | Bliss interaction score
[1] | 0.0876
[2] | -0.109
[3] | -0.0869
[4] | -0.0549

fitness
Conditions | partner 1 µg/mL | partner 2 µg/mL | partner 4 µg/mL | partner 8 µg/mL
[5], first compound 0.0375 µg/mL | 0.737 | 0.7 | – | –
[5], first compound 0.075 µg/mL | 0.68 | 0.65 | – | –
[5], first compound 0.15 µg/mL | – | 0.0504 | 0.066 | –
[6], first compound 0.0098 µg/mL | – | 0.861 | – | –
[6], first compound 0.0195 µg/mL | – | 0.601 | – | –
[6], first compound 0.039 µg/mL | – | 0.0408 | 0.0521 | 0.0363
[7], first compound 0.125 µg/mL | – | 0.916 | 0.936 | 0.909
[7], first compound 0.25 µg/mL | – | 0.872 | 0.774 | 0.765

[7], partner 16 µg/mL, one replicate
Conditions | fitness
first compound 0.125 µg/mL | 0.739
first compound 0.25 µg/mL | 0.668
first compound 0.5 µg/mL | 0.379

COc1ccc(C[C@H](N)C(=O)N[C@H]2[C@@H](O)[C@H](n3cnc4c(N(C)C)ncnc43)O[C@@H]2CO)cc1 [Puromycin] + CN(C)c1cc(NC(=O)CNC(C)(C)C)c(O)c2c1C[C@H]1C[C@H]3[C@H](N(C)C)C(O)=C(C(N)=O)C(=O)[C@@]3(O)C(O)=C1C2=O [Tigecycline]
Conditions | Bliss interaction score
[1] | 0.0585
[2] | -0.044
[3] | 0.0709
[4] | 0.062

fitness
Conditions | first compound 0.39 µg/mL | first compound 0.78 µg/mL | first compound 1 µg/mL | first compound 1.56 µg/mL | first compound 2 µg/mL | first compound 4 µg/mL
[5], partner 0.039 µg/mL | ≥ 1 | 0.999 | – | 0.985 | – | –
[5], partner 0.078 µg/mL | ≥ 1 | 0.995 | – | 0.995 | – | –
[5], partner 0.156 µg/mL | ≥ 1 | 0.991 | – | ≥ 1 | – | –
[6], partner 0.039 µg/mL | 0.945 | 0.976 | – | 0.953 | – | –
[6], partner 0.078 µg/mL | 0.945 | 0.925 | – | 0.958 | – | –
[6], partner 0.156 µg/mL | 0.895 | 0.964 | – | 0.924 | – | –
[7], partner 0.65 µg/mL | – | – | 0.921 | – | 0.892 | 0.723
[7], partner 1.3 µg/mL | – | – | 0.927 | – | 0.931 | 0.71
[7], partner 2.6 µg/mL | – | – | ≥ 1 | – | 0.941 | 0.797

fitness, [6], one replicate
Conditions | first compound 0.39 µg/mL | first compound 0.78 µg/mL | first compound 1.56 µg/mL
partner 0.125 µg/mL | ≥ 1 | 0.997 | ≥ 1
partner 0.25 µg/mL | 0.862 | 0.938 | 0.92
partner 0.5 µg/mL | 0.908 | 0.893 | 0.903

— the supplement of paper PMC10627819
